Laboratory results from ChEMBL document CHEMBL1201862, “PubChem BioAssay data set” (2004).
Calls of active or inactive are those of the source.

Key:
[1] = molecular target: T1, Probable nicotinate-nucleotide adenylyltransferase (Staphylococcus aureus (strain N315), UniProt P65502); assay type: functional, Staphylococcus aureus subsp. aureus N315; conditions: read-out: IC50_Mean;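 on IC50 Mean: confirmatory dose-response retesting of NadD inhibitor hits first found in an ultra-high-throughput screen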
T1 sequence (P65502 whole entry): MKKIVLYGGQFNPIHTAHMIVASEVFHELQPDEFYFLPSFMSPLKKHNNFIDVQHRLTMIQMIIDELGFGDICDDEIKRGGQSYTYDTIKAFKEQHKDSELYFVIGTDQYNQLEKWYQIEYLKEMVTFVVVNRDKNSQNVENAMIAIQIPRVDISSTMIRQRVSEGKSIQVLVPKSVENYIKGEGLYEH

[2] = molecular target: T1, Probable nicotinate-nucleotide adenylyltransferase; assay type: functional, Staphylococcus aureus subsp. aureus N315
[3] = molecular target: T2, Zinc finger protein mex-5 (Caenorhabditis elegans, UniProt Q9XUB2); experiment: potency of MEX-5 RNA-binding blockers – biochemical, C. elegans, fluorescence polarization, dose response (AID 1960)
T2 sequence (Q9XUB2 whole entry): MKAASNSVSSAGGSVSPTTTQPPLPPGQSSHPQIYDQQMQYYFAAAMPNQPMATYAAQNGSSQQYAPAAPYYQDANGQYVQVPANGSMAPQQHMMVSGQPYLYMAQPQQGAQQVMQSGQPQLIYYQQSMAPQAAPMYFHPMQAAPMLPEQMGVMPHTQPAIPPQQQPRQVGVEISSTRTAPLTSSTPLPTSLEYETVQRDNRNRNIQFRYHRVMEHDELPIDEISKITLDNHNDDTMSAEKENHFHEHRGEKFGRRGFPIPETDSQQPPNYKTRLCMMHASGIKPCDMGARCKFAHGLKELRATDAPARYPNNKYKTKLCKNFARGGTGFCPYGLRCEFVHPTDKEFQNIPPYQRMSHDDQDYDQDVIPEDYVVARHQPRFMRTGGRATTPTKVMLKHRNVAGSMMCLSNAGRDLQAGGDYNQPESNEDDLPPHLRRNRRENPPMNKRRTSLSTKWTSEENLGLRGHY

Protein RecA = molecular target: T3, Protein RecA (Mycobacterium tuberculosis, UniProt P9WHJ3); experiment: Fluorescence Cell-Free Homogeneous Dose Retest to Identify Inhibitors of RecA-Intein Splicing Activity. [Related pubchem assays (depositor defined):AID2097, AID2223, AID489010, AID492950]; assay type: functional
T3 sequence (P9WHJ3 whole entry): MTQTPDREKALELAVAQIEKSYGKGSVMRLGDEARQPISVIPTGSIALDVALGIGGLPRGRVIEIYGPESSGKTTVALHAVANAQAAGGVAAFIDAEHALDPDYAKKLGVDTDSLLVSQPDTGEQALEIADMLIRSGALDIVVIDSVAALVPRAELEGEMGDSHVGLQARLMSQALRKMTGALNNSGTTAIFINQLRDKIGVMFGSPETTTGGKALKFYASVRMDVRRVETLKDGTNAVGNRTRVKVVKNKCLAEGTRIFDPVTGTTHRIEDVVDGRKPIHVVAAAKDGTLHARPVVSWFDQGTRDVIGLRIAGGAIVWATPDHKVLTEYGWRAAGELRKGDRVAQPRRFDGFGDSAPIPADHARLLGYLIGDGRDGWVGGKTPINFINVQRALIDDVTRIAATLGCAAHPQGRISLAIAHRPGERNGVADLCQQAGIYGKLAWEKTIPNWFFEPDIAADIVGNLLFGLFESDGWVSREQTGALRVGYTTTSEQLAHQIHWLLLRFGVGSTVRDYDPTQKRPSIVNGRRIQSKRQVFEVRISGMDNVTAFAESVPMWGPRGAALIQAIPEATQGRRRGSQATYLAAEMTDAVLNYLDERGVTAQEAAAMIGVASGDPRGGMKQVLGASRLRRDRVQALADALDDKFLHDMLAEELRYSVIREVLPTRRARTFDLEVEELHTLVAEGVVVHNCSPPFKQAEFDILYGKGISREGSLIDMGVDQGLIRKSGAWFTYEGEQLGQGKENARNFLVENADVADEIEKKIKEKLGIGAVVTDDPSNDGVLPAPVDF

Streptococcus = experiment: GAS UMAA2166 growth inhibition – luminescence, BacTiterGlo, counter-screen for streptokinase expression inhibitor project, dose response (AID 1915); assay type: functional, organism-based;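 further: potency for reduction of bacterial viability or growth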
[4] = molecular target: 26S proteasome non-ATPase regulatory subunit 14 (Homo sapiens, UniProt O00487); experiment: inhibition of proteasome subunit RPN11 – biochemical, fluorescence polarization, uHTS hits, confirmation (AID 602368); assay type: functional
Sequence of 26S proteasome non-ATPase regulatory subunit 14 (O00487 whole entry): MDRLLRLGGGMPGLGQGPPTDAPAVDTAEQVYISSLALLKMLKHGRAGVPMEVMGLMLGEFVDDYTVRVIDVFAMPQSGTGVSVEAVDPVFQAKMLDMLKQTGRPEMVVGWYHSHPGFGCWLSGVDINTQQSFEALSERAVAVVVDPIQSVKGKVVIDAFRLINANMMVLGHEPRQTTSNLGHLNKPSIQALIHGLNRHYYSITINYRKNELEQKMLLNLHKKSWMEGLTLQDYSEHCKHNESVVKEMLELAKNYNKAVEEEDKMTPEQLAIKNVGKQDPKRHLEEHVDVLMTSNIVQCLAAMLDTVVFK

[5] = molecular target: T4, Replicative DNA helicase DnaB (Mycobacterium tuberculosis, UniProt P9WMR3); experiment: DnaB intein splicing inhibitors, dose response, biochemical, cell-free fluorescence (AID 449749); assay type: functional
T4 sequence (P9WMR3 whole entry): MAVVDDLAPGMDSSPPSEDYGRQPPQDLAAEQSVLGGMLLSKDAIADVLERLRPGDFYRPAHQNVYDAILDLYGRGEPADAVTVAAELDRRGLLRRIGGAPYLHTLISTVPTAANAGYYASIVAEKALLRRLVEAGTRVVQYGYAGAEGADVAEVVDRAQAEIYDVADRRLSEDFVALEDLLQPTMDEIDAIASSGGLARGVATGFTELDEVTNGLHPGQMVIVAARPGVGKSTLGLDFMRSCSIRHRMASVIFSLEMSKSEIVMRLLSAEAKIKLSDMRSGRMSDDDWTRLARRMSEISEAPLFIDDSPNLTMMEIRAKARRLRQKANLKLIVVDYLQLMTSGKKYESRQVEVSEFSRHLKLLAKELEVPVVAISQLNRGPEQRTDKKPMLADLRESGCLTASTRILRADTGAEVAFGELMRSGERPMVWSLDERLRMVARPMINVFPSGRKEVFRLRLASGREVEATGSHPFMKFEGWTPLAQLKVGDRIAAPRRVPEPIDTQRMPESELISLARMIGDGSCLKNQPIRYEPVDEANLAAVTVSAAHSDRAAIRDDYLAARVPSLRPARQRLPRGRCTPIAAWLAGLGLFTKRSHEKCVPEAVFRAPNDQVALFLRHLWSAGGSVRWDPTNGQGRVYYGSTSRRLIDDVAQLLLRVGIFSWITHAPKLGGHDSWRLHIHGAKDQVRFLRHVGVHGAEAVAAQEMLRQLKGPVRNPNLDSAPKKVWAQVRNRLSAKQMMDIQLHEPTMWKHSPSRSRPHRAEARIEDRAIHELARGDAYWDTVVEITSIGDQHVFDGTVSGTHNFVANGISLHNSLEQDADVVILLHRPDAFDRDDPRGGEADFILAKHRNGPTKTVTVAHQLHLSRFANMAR

[6] = molecular target: T5, RNA-binding protein pos-1 (Caenorhabditis elegans, UniProt G5EF15); experiment: disruptors of C. elegans POS-1 RNA interaction – biochemical, fluorescence polarization, dose response (AID 1964);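 further: purified POS-1 fused to maltose binding protein made in E. coli; potency of compounds blocking POS-1 binding to fluorescent RNA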
T5 sequence (G5EF15 whole entry): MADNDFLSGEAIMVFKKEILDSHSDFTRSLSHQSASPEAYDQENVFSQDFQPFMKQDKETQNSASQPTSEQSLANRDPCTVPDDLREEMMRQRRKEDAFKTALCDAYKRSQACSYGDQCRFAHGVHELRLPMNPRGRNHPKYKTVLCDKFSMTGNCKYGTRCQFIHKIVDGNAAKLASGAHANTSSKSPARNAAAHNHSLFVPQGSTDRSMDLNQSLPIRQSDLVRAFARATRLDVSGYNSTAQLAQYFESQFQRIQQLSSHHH

[7] = molecular target: 72 kDa type IV collagenase (Homo sapiens, UniProt P08253); experiment: Dose Response validation of uHTS RPN11 inhibitor hits using a MMP-2 Fluorescence assay.; assay type: functional
Sequence of 72 kDa type IV collagenase (P08253 whole entry): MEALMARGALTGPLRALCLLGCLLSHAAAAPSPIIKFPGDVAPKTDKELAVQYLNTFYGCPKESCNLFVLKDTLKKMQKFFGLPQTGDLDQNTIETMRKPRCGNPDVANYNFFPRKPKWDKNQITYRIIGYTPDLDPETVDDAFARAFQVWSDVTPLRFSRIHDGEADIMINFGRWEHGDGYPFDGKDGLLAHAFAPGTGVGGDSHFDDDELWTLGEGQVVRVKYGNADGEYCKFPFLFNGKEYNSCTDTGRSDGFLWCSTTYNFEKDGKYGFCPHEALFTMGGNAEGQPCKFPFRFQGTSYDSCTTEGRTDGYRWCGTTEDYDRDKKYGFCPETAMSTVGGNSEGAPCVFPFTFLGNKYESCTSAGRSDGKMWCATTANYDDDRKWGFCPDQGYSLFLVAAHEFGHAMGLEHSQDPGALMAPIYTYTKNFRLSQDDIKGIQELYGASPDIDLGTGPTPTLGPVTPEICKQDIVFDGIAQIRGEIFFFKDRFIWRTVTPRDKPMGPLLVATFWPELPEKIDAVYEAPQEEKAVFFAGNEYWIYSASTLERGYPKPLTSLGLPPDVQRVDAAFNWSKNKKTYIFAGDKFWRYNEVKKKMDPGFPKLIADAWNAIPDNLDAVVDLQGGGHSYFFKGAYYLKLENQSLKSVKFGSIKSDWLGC

Prothrombin = Prothrombin (Bos taurus, UniProt P00735); experiment: thrombin protease inhibitors – biochemical, fluorescence polarization, uHTS hits, dose response (AID 602369); assay type: functional
[8] = test system: Streptococcus sp. 'group A'; experiment: Streptococcus pyogenes SK(-)GAS viability under kanamycin – luminescence, BacTiterGlo, confirmation, counter-screen for streptokinase expression inhibitor project, dose response (AID 1900); assay type: functional, organism-based
Streptokinase A = molecular target: T6, Streptokinase A (Streptococcus pyogenes serotype M1, UniProt P10520); experiment: viability-normalized secreted streptokinase activity reduction – plasminogen activation absorbance, OD405, dose response (AID 1914); assay type: functional, Streptococcus pyogenes M1 GAS;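 further: secreted streptokinase activity via plasminogen activation per viability signal from cell pellet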
T6 sequence (P10520 whole entry): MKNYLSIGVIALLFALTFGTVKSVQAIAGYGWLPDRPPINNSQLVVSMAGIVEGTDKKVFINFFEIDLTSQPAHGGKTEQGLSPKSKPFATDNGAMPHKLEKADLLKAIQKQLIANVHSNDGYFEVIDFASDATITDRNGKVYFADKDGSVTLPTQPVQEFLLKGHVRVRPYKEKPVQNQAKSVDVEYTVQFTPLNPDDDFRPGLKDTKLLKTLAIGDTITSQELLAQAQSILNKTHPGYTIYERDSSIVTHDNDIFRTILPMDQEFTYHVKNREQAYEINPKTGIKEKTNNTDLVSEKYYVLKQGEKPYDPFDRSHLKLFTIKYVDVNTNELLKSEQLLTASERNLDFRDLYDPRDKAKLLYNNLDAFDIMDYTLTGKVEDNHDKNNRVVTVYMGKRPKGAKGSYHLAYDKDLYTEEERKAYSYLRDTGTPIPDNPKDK

[9] = molecular target: Adenosylmethionine-8-amino-7-oxononanoate aminotransferase (Mycobacterium tuberculosis, UniProt P9WQ81); experiment: Mycobacterium tuberculosis BioA enzyme inhibitor Measured in Biochemical System Using Plate Reader - 2163-02_Inhibitor_Dose_CherryPick_Activity.; assay type: functional, Mycobacterium tuberculosis UT205
Sequence of Adenosylmethionine-8-amino-7-oxononanoate aminotransferase (P9WQ81 whole entry): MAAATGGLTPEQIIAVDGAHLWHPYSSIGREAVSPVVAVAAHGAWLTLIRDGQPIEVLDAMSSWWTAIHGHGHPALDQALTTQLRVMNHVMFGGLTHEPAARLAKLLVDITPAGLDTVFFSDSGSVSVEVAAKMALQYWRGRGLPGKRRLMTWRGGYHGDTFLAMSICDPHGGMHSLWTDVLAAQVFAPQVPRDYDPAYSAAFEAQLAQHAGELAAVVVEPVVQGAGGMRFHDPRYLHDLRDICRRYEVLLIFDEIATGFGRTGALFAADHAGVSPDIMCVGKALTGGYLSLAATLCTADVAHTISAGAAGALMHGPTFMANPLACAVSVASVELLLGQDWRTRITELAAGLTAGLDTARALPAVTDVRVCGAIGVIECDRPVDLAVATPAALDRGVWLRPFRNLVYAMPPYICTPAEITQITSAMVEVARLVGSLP

[10] = molecular target: Eukaryotic translation initiation factor 4E (Mus musculus, UniProt P63073); experiment: blockers of eIF4G binding by eIF4E – biochemical, TR-FRET, dose response (AID 855); assay type: functional;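 further: potency for disrupting eIF4E binding to eIF4GI seen as loss of FRET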
Sequence of Eukaryotic translation initiation factor 4E (P63073 whole entry): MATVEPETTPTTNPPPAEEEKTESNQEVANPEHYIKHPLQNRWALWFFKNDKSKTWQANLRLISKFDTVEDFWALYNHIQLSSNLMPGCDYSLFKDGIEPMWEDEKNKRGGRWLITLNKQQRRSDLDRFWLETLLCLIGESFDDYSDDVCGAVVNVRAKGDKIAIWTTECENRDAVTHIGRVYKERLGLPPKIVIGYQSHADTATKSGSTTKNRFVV

[11] = molecular target: Tyrosine-protein phosphatase non-receptor type 11 (Homo sapiens, UniProt Q06124); experiment: PTPN11 enzyme inhibitors – biochemical, selectivity assay for STEP inhibitor project, dose response (AID 602367); assay type: functional; conditions: read-out: IC50_Mean
Sequence of Tyrosine-protein phosphatase non-receptor type 11 (Q06124 whole entry): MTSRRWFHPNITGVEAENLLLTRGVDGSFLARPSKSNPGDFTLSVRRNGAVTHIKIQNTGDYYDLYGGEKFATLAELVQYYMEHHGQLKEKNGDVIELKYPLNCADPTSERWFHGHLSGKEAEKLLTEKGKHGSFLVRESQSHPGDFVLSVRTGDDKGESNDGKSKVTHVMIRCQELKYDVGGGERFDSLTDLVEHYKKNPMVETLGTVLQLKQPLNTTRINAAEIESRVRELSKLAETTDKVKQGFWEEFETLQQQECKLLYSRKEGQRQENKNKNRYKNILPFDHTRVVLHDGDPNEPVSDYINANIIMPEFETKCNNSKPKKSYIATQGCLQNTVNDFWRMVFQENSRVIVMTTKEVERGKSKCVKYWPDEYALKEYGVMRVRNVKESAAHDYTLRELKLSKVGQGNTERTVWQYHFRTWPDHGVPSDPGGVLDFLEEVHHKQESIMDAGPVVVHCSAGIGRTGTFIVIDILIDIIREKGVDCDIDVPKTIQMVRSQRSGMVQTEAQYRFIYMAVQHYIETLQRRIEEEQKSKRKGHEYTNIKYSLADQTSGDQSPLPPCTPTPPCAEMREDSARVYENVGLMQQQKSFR

[12] = molecular target: Dual specificity protein phosphatase 3 (Homo sapiens, UniProt P51452); experiment: VHR phosphatase inhibition, dose response, selectivity assay for STEP inhibitor project, biochemical (AID 602374); assay type: functional; conditions: read-out: IC50_Mean
Sequence of Dual specificity protein phosphatase 3 (P51452 whole entry): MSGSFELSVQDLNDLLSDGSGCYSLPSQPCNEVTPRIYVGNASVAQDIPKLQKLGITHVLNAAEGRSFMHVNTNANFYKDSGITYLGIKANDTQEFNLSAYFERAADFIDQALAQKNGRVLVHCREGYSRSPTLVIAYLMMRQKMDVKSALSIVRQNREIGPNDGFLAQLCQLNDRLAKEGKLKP

[13] = molecular target: Tyrosine-protein phosphatase non-receptor type 5 (Homo sapiens, UniProt P54829); experiment: PTPN5 enzyme inhibition – biochemical, fluorescence intensity, uHTS hits, confirmation (AID 602372); assay type: functional; conditions: read-out: IC50_Mean
Sequence of Tyrosine-protein phosphatase non-receptor type 5 (P54829 whole entry): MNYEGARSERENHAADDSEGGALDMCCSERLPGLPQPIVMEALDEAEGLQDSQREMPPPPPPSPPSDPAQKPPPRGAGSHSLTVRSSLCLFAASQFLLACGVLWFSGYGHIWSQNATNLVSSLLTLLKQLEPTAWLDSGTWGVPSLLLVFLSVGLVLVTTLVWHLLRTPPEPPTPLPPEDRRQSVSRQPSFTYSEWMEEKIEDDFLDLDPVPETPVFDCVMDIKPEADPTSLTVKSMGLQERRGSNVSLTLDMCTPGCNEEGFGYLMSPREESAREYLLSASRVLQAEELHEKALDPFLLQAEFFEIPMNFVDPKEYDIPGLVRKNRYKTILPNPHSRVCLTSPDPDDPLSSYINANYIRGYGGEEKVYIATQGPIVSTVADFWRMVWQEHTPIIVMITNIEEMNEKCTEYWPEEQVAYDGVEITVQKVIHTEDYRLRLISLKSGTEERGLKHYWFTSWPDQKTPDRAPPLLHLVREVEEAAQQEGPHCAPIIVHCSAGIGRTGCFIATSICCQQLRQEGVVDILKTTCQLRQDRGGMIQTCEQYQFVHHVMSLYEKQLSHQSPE

[14] = molecular target: T7, Small ubiquitin-related modifier 1 (Homo sapiens, UniProt P63165); experiment: SUMO1 protein interaction blockers, potency – biochemical, fluorescence polarization, uHTS hits, dose response (AID 624382); assay type: functional; conditions: read-out: IC50_Mean
T7 sequence (P63165 whole entry): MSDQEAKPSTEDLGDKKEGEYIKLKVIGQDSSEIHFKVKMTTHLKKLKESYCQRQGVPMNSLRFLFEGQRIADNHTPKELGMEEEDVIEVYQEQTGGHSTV

[15] = molecular target: T7, Small ubiquitin-related modifier 1; experiment: SUMO1 protein-protein binding blockers, potency – biochemical, FRET, dose response (AID 624383); assay type: functional; conditions: read-out: IC50_Mean
[16] = molecular target: T8, Calpain-2 catalytic subunit (Sus scrofa, UniProt P43367); experiment: m-calpain protease blockers, concentration series – biochemical, fluorogenic peptide substrate, dose response (AID 1420); assay type: functional
T8 sequence (P43367 whole entry): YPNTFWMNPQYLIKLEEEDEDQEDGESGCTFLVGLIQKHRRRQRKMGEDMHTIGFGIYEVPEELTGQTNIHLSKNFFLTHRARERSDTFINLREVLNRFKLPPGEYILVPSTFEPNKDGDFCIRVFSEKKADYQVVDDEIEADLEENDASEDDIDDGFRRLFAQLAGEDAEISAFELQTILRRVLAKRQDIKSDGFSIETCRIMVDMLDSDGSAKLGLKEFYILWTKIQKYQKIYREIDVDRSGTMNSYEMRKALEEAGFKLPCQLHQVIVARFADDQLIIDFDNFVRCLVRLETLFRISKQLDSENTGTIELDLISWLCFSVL

[17] = nonselective StAR promoter luciferase inhibitors – cell-based, luminescence, luciferase reporter, counter-screen for LRH-1 inverse agonist project, dose response (AID 651969); assay type: functional
Steroidogenic factor 1 = Steroidogenic factor 1 (Homo sapiens, UniProt Q13285); experiment: Counterscreen for inverse agonists of the liver receptor homolog-1 (LRH-1; NR5A2): Luminescence-based cell-based high throughput dose response assay to identify inverse agonists of the Steroidogenic Factor 1 Nuclear Receptor (SF1; NR5A1).; assay type: functional
Sequence of Steroidogenic factor 1 (Q13285 whole entry): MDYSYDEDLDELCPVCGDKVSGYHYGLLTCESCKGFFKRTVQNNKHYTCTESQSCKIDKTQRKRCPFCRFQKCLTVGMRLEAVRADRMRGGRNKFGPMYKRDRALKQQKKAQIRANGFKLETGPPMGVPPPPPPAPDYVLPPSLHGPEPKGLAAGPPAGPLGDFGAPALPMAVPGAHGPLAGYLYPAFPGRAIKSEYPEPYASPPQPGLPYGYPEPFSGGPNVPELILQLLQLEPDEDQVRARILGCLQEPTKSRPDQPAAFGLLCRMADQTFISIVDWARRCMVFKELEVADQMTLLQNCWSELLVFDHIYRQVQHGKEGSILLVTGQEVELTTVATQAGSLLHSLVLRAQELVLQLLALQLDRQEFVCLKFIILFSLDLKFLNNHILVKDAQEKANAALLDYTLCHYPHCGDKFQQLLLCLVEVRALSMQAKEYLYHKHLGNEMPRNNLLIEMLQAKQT

[18] = molecular target: Nuclear receptor subfamily 5 group A member 2 (Homo sapiens, UniProt O00482); assay type: functional, cell-based;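 further: HEK293T cells transfected with LRH-1 and a StAR promoter luciferase reporter; potency for inhibitors that lower LRH-1 driven reporter light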
Sequence of Nuclear receptor subfamily 5 group A member 2 (O00482 whole entry): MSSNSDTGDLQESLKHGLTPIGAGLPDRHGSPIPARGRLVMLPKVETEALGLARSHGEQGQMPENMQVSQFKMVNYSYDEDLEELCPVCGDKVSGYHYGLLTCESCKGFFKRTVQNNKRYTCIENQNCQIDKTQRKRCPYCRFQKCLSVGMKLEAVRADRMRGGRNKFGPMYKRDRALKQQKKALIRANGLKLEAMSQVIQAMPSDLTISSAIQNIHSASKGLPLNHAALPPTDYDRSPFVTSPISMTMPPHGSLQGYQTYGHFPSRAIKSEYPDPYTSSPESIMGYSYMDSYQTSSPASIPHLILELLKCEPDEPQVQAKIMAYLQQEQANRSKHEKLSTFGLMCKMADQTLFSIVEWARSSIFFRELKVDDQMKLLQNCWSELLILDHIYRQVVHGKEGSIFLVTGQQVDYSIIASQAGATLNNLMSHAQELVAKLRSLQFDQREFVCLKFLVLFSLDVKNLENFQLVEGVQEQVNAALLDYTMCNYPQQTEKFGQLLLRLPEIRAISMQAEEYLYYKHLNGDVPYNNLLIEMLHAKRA

Cc1cccc(C)c1Nc1nnc(SC/C(O)=C(\C#N)c2nc3ccccc3[nH]2)s1
IC50 [1]: 25.2 µM (active)
IC50 [2]: 9.49 µM (active)

O=C(N/N=C/c1cc(Cl)cc([N+](=O)[O-])c1O)c1ccccc1NS(=O)(=O)c1cccs1
EC50 [3]: 1.56 µM (inconclusive)
EC50 (Protein RecA): 67.2 µM (active)
EC50 (Streptococcus): 18.9 µM (active)
IC50 [4]: 10.4 µM (active)
AC50 [5]: 15.9 µM (active)
EC50 [6]: 282 µM (active)
IC50 [7]: > 100 µM (inactive)
IC50 (Prothrombin): 85.5 µM (active)
EC50 [8]: 4.31 µM (active)
EC50 (Streptokinase A): > 150 µM (not active)

O=C(O)CCCCN1C(=O)/C(=C\c2ccc(OCc3ccccc3)c(OCc3ccccc3)c2)SC1=S
IC50 [4]: 45.4 µM (active)
IC50 [7]: > 100 µM (inactive)
IC50 (Prothrombin): 29.3 µM (active)

O=C(Nc1cccc(F)c1)C1CCCN(c2cnccn2)C1 (configuration not stated)
AC50 [9]: 5.41 µM (active)

O=C(CSc1nc(-c2ccc(F)cc2)nc2c1Cc1ccccc1O2)Nc1cccc(C(=O)O)c1
IC50 [10]: 50 µM (inactive)
IC50 [11]: 0.443 µM (active)
IC50 [12]: 0.353 µM (active)
IC50 [13]: 2.26 µM (active)
IC50 [14]: > 66.6 µM (inactive)
IC50 [15]: 4.27 µM (active)
IC50 [16]: > 50 µM (not active)

COc1ccccc1NC(=O)CN1CCN(CC(=O)Nc2ccc(S(N)(=O)=O)cc2)CC1
IC50 [17]: 35.9 µM (inactive)
IC50 (Steroidogenic factor 1): 6.64 µM (active)
IC50 [18]: 25.9 µM (inactive)

Cc1ccc(C)c(N2CCN(S(=O)(=O)c3ccc4nc(O)c(O)nc4c3)CC2)c1
IC50 [1]: 25.9 µM (active)
IC50 [2]: 5.39 µM (active)

CC(=O)c1ccc(NC(=O)C(C)ONC(=N)c2ccccc2)cc1 (configuration not stated)
IC50 [17]: 35.9 µM (inactive)
IC50 (Steroidogenic factor 1): 6.11 µM (active)
IC50 [18]: 23.8 µM (inactive)

O=C(C[C@@H]1C[C@H]2c3cc(NC(=O)c4cccnc4)ccc3O[C@H]2[C@@H](CO)O1)NCc1cc(F)ccc1F
AC50 [9]: 12.6 µM (active)
